Results reported in patent US4072759A, “Novel benzylalcohol derivatives as antidiabetics and cardiotonics” (Tanabe Seiyaku Co., Ltd., priority 1976, dated 1978).

Columns and labels:
[1] = decrease of blood sugar in mice, oral administration prior to subcutaneous injection of glucose; type: in vivo
Procedure: For example, when α-(3,4-dimethoxyphenethylaminomethyl)-2-hydroxybenzylalcohol is administered orally to mice at a dose of 10 mg/kg prior to subcutaneous injection of glucose (1 g/kg), said 2-hydroxybenzylalcohol derivative of the invention decreases the blood sugar level by about 30 %. On the other hand, when examined under the same conditions as above, 100 mg/kg of Phenformin (Chemical name: 1-phenethylbiguanide) are required to induce 13 % decrease in said blood sugar.

adrenergic β1-receptor [2] = test: cardiac contractile activity (general statement)
[3] = 50 % lethal dose by intravenous injection to mice; conditions: mouse, in vivo
Excerpt: Further, the toxicity of the benzylalcohol derivative (I) of the present invention is remarkably low.

adrenergic β1-receptor [4] = conditions: cited from earlier work
adrenergic β1-receptor [5] = test: increase of cardiac contractile force after injection into femoral vein of dogs; type: in vivo; conditions: injected into femoral vein, 10 μg/kg

COc1ccc(CCNCC(O)c2ccccc2O)cc1OC (stereo not drawn) [α-(3,4-dimethoxyphenethylaminomethyl)-2-hydroxybenzylalcohol]
decreases the blood sugar level ([1]; mice, oral, 10 mg/kg, prior to subcutaneous glucose (1 g/kg)): about 30%
decrease of blood sugar (in words) ([1]; mouse, in vivo): remarkable decrease of blood sugar
cardiac contractile activity (adrenergic β1-receptor [2]): no substantial cardiac contractile activity

N=C(N)NC(=N)NCCc1ccccc1 [Phenformin, 1-phenethylbiguanide, reference compound]
decrease in blood sugar ([1]; mice, same conditions, 100 mg/kg): 13%

COc1ccc(CCNCC(O)c2ccc(O)cc2)cc1OC (stereo not drawn) [α-(3,4-dimethoxyphenethylaminomethyl)-4-hydroxybenzylalcohol]
LD50 [3]: ~198 mg/kg

COc1ccc(CCNCC(O)c2ccc(O)c(O)c2)cc1OC (stereo not drawn) [α-(3,4-dimethoxyphenethylaminomethyl)-3,4-dihydroxybenzylalcohol]
activation of adrenergic β1-receptor (adrenergic β1-receptor [4]): selective activation of adrenergic β1 -receptor

COc1cc(CCNCC(O)c2ccc(O)c(O)c2)cc(OC)c1OC (stereo not drawn) [α-(3,4,5-trimethoxyphenethylaminomethyl)-3,4-dihydroxybenzylalcohol]
activation of adrenergic β1-receptor (adrenergic β1-receptor [4]): selective activation of adrenergic β1 -receptor

COc1ccc(CCNCC(O)c2cccc(O)c2)cc1OC (stereo not drawn) [α-(3,4-dimethoxyphenethylaminomethyl)-3-hydroxybenzylalcohol]
increase the cardiac contractile force (adrenergic β1-receptor [5]): 55%
